Experimental data taken from ChEMBL document CHEMBL1201862, “PubChem BioAssay data set” (2004).
The source made the active and inactive calls.

Legend:
[1] = molecular target: T1, Zinc finger protein mex-5 (Caenorhabditis elegans, UniProt Q9XUB2); assay: MEX-5/TCR-2 RNA interaction inhibitors, dose response, biochemical, C. elegans, fluorescence polarization (AID 1960)
T1 sequence (Q9XUB2 whole entry): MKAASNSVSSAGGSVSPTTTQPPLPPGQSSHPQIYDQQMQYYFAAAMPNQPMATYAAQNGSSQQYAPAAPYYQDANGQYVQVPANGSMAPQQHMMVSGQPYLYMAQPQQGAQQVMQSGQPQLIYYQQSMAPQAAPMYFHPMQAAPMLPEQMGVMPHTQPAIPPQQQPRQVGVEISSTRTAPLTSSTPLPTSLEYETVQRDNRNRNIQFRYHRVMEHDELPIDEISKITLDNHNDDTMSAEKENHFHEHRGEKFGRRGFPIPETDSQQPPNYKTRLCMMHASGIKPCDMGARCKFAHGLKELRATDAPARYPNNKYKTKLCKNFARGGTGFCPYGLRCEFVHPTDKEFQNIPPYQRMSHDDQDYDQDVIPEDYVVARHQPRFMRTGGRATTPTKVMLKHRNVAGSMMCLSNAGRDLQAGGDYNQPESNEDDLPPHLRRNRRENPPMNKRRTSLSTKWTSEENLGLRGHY

[2] = molecular target: T2, RNA-binding protein pos-1 (Caenorhabditis elegans, UniProt G5EF15); assay: inhibitors of POS-1/mex-3 RNA binding, dose response, biochemical, fluorescence polarization (AID 1964);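 note: purified POS-1 fused to maltose binding protein made in E. coli; potency of compounds blocking POS-1 binding to fluorescent RNA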
T2 sequence (G5EF15 whole entry): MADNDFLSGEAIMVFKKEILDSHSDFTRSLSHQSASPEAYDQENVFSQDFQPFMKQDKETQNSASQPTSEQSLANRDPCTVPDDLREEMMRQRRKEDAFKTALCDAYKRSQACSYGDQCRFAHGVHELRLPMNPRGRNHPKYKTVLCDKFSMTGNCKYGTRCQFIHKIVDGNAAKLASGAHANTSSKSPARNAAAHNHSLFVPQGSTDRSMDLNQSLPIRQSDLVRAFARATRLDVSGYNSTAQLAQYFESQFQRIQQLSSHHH

[3] = molecular target: T3, Heat shock factor protein 1 (Mus musculus, UniProt P38532); assay: HSF1 potentiators in luciferase reporter cells, confirmation, cell-based, NIH3T3, luminescence, dose retest (AID 435004); type: functional;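 note: stress induced by proteasome inhibitor MG132 added 30 min after compound; luciferase reporter driven by HSF1 response element in NIH3T3 cells; actives raise luminescence as potentiators of the MG132 stress response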
T3 sequence (P38532 whole entry): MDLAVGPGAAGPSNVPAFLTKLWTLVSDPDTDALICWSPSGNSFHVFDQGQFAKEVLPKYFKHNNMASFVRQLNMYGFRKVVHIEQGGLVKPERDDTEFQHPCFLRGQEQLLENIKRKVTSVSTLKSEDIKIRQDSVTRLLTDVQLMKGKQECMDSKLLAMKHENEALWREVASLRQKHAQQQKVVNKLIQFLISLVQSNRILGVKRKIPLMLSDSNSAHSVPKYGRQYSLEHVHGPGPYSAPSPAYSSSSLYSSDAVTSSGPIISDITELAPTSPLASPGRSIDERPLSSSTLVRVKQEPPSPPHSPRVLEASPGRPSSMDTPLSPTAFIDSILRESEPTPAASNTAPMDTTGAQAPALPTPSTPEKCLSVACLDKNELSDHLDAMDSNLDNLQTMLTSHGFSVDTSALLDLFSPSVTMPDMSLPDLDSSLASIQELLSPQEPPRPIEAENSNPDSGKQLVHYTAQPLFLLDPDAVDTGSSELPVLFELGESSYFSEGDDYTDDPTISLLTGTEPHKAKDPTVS

[4] = molecular target: Cytochrome P450 2C9 (Homo sapiens, UniProt P11712)
Cytochrome P450 2C9, sequence (P11712 whole entry): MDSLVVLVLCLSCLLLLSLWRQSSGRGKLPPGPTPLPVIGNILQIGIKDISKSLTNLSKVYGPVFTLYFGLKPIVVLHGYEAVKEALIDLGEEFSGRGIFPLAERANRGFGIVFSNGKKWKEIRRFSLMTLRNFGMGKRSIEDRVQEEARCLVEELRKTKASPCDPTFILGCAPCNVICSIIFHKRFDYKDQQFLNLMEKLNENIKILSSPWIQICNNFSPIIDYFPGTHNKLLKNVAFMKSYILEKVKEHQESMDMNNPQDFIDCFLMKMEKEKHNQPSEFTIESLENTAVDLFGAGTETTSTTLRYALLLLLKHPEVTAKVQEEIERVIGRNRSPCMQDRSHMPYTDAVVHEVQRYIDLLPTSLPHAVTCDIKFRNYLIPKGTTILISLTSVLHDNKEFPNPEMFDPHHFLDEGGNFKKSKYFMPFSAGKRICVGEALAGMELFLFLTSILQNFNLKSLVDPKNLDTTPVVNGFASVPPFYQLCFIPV

[5] = molecular target: Cytochrome P450 3A4 (Homo sapiens, UniProt P08684);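 note: CYP3A4 tested as one member of a cytochrome P450 panel screen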
Cytochrome P450 3A4, sequence (P08684 whole entry): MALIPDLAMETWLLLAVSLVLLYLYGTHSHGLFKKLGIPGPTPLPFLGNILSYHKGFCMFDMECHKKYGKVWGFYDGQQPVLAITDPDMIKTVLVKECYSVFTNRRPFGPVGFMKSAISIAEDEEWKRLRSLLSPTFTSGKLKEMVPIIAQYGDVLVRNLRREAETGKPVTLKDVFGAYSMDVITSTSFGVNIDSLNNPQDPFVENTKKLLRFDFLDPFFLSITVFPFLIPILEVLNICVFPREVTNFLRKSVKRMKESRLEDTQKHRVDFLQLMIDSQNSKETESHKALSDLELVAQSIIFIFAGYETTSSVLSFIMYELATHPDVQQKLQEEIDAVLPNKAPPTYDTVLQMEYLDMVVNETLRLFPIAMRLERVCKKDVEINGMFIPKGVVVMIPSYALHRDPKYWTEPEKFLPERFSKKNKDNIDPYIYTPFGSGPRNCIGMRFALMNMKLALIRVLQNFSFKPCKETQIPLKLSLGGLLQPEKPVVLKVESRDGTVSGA

[6] = molecular target: Cytochrome P450 2C19 (Homo sapiens, UniProt P33261); assay: Cytochrome panel assay with activity outcomes. Panel member name: p450-cyp2c19 Compounds with AC50 equal or less than 10 uM are considered active; type: functional; conditions: read-out: AC50
Cytochrome P450 2C19, sequence (P33261 whole entry): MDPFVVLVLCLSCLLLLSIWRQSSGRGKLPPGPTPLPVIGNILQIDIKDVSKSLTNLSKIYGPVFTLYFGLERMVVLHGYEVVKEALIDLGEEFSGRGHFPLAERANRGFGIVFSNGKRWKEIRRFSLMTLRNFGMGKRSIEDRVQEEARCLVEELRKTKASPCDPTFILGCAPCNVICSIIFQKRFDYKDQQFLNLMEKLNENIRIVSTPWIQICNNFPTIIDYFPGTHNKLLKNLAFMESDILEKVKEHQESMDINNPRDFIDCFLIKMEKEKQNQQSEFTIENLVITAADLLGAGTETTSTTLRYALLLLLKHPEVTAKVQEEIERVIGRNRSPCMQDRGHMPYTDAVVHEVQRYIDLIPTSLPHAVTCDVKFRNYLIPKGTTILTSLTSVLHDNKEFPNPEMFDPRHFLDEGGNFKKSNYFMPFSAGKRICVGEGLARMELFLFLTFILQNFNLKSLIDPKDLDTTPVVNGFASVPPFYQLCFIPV

[7] = NIH-3T3 fibroblast cytotoxicity, dose response, cytotoxicity control, cell-based, fluorescence, Alamar Blue, secondary assay (AID 2327); type: functional;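 note: NIH-3T3 mouse fibroblasts cultured with fluconazole at 8 µg/mL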
[8] = cytotoxicity toward NIH3T3 fibroblasts, dose response, counter-screen, cell-based, ATP luminescence, mouse fibroblasts (AID 2010); type: functional;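 note: cells exposed to compound for about 90 hours before reading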
[9] = C. albicans growth with fluconazole, confirmation, fluorescence, retest (AID 2467); type: functional, cell-based
[10] = inhibitors of intracellular T. cruzi replication, confirmation, NIH3T3 host cells, beta-gal luminescence (AID 2044); type: functional, cell-based;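 note: intracellular parasites grown in NIH/3T3 mouse fibroblasts as host cells; luminescent beta-galactosidase reporter signal from transgenic T. cruzi replicating inside host cells; inhibitors lower the luminescence signal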
[11] = Luminescence Cell-Based Dose Response HTS to Identify Inhibitors of 5'UTR Stem-Loop Driven Prion Protein mRNA Translation in H4 Neuroglioblastoma Cells. [Related pubchem assays: 1827 (Project Summary), 1813 (Primary HTS)]; type: functional
[12] = inhibitors of SNCA 5'UTR-driven reporter translation, confirmation, H4 neuroglioma cells, luminescence (AID 1988); type: functional, cell-based
[13] = inhibitors of firefly luciferase expression or activity, dose response, H4 neuroglioma cells, luminescence (AID 1990); type: functional, cell-based

O=C(Nc1ccc(Br)cn1)c1ccc2nccnc2c1
EC50 [1]: > 300 µM (not active)
EC50 [2]: > 300 µM (not active)

CCOc1cc(N2CCOCC2)c(OCC)cc1NC(=O)Cc1cccc2ccccc12
EC50 [3]: > 260 µM (inactive)

C=CCN1C(=O)S/C(=C\c2ccc(N3CCOCC3)cc2C)C1=O
EC50 [1]: 61.3 µM (inconclusive)
EC50 [2]: 40.8 µM (active)

Cc1cc(C(F)(F)F)n2nc(-c3cnn(C)c3C(F)(F)F)cc2n1
AC50 [4]: 7.08 µM (inconclusive)
AC50 [5]: 17.8 µM (inconclusive)

CC(C)=NO[C@@H](C)c1cc(-c2c(C)cc(C)cc2C)no1
AC50 [6]: 0.631 µM (inconclusive)
AC50 [5]: 3.16 µM (inconclusive)

CSCC(C)N1CCC(n2nccc2NC(=O)CCCc2ccccc2)CC1 (stereo not drawn)
EC50 [1]: 8.67 µM (active)
EC50 [2]: 6.99 µM (active)

O=C(Cn1nnc2ccccc21)N/N=C\C=C\c1ccccc1
AC50 [6]: 14.1 µM (inconclusive)
AC50 [4]: 12.6 µM (inconclusive)

Nc1ccc(S(=O)(=O)NNC(=O)C(=O)NNc2ccccc2)cc1
EC50 [7]: 1.48 µM (active)
EC50 [8]: 1.96 µM (active)
EC50 [9]: > 38 µM (not active)
EC50 [10]: 750 nM (active)

CCOC(=O)c1sc(Nc2nc3c(OC)cccc3s2)nc1C
EC50 [7]: 48.9 µM (active)
EC50 [9]: 2.8 µM (active)

CCCOc1cccc(C(=O)Nc2cccnc2)c1
EC50 [7]: > 150 µM (inactive)
EC50 [9]: > 38 µM (not active)

O=S(=O)(c1ccc(-n2cnnn2)cc1)N1CCNCC1
EC50 [3]: > 260 µM (inactive)

COc1ccc2c(c1)CCN=C2Cc1ccc(OC)c(OC)c1
EC50 [7]: 66.8 µM (active)
EC50 [9]: > 38 µM (not active)
EC50 [11]: > 120 µM (not active)
EC50 [12]: > 120 µM (not active)
EC50 [13]: > 120 µM (not active)

CC(C)C(C(=O)NCc1ccccc1)N(CC1CCCO1)C(=O)CNS(=O)(=O)c1ccccc1 (stereo not drawn)
EC50 [3]: > 260 µM (inactive)

CS(=O)(=O)c1ccc(-c2cc(Br)sc2-c2ccc(F)cc2)cc1 [DUP-697]
AC50 [5]: 20 µM (inconclusive)

COc1cccc(CN2C(=O)C3(C(C#N)=C(N)OC4=C3C(=O)CCC4)c3ccccc32)c1 (stereo not drawn)
EC50 [7]: > 160 µM (inconclusive)
EC50 [9]: 1.24 µM (active)
EC50 [1]: > 300 µM (not active)
EC50 [11]: > 120 µM (not active)
EC50 [2]: > 300 µM (not active)
EC50 [12]: 20.1 µM (active)
EC50 [13]: 19.2 µM (active)

Nc1n[nH]c2nc3ccccc3nc12 [QUINOXALINE1]
AC50 [5]: 0.126 µM (inconclusive)

Cc1cc(C)nc(NC(=O)c2cccc([N+](=O)[O-])c2C)n1
AC50 [4]: 11.2 µM (inconclusive)

CCOC(=O)c1c(C)[nH]c(C)c1S(=O)(=O)N1CCN(c2cccc(C)c2)C(C)C1 (stereo not drawn)
EC50 [3]: > 260 µM (inactive)

Cc1ccc(CS(=O)(=O)CCC(=O)NCCCOC(C)C)cc1
AC50 [5]: 35.5 µM (inconclusive)

O=S(=O)(Nc1cccc2ccccc12)c1cccc2nonc12
EC50 [3]: > 260 µM (inactive)

Cc1cc2c3c(c1)C1(C(=O)N3C(C)(C)CC2C)C(C#N)=C(N)OC2=C1C(=O)CC(C)(C)C2 (stereo not drawn)
EC50 [1]: > 300 µM (not active)
EC50 [2]: > 300 µM (not active)

Cc1ccc(OCCCC(=O)NCc2ccco2)cc1
AC50 [5]: 17.8 µM (inconclusive)

C1CNCCOCCNCCN1
AC50 [4]: 17.8 µM (inconclusive)

CC1CCCN(C(=O)c2cccc(S(=O)(=O)Nc3cc(C(F)(F)F)ccc3Cl)c2)C1 (stereo not drawn)
EC50 [7]: > 150 µM (inactive)
EC50 [9]: > 38 µM (not active)

COc1ccc(C2/C=C\CN(S(=O)(=O)/C=C/c3ccccc3)[C@H](Cc3ccccc3)C(=O)N2Cc2ccc(F)cc2)cc1 (stereo partly drawn)
EC50 [3]: > 260 µM (inactive)

CC(=O)Nc1ccc(S(=O)(=O)NCc2nc(-c3cccc(C)c3)no2)cc1
EC50 [1]: > 300 µM (not active)
EC50 [2]: 85.6 µM (active)

COc1ccc(NS(=O)(=O)c2cc(NC(=O)c3cnccn3)ccc2N2CCCC2)cc1
EC50 [3]: > 260 µM (inactive)

Cc1c(Cl)cccc1N1C(=O)NC(=O)/C(=C\c2cc(C)n(-c3cccc(C(=O)O)c3C)c2C)C1=O
EC50 [1]: > 300 µM (not active)
EC50 [2]: > 300 µM (not active)

CN1C[C@H](CO)C=C2c3cccc4[nH]cc(c34)C[C@@H]21
AC50 [5]: 12.6 µM (inconclusive)

COc1cccc(Nc2ncc3nc(C)c(=O)n(CCc4ccccc4)c3n2)c1
AC50 [4]: 3.16 µM (inconclusive)

COCCNC(=O)C(c1ccc(C)cc1)N(C(=O)CCC(=O)Nc1ccccn1)c1ccccc1C (stereo not drawn)
EC50 [3]: > 260 µM (inactive)

O=C(CCC(=O)Nc1ccccc1Cl)NNS(=O)(=O)c1ccc(Cl)cc1
EC50 [7]: > 160 µM (inactive)
EC50 [9]: > 38 µM (not active)

O=c1c(-c2cccs2)nc2cnc(N3CCOCC3)nc2n1CCc1ccccc1
AC50 [5]: 12.6 µM (inconclusive)

COc1ccc(NC(=O)c2cccs2)c([N+](=O)[O-])c1
AC50 [4]: 7.94 µM (inconclusive)

N#CCCn1c(=O)c(-c2cccs2)nc2cnc(Oc3cccc(Cl)c3)nc21
AC50 [4]: 6.31 µM (inconclusive)
AC50 [5]: 7.94 µM (inconclusive)

CC(C)NC(=O)N1CCCC2(CCN(C(=O)c3cccn3C)CC2)C1
AC50 [5]: 25.1 µM (inconclusive)

Clc1ccc(CNC2CCN(Cc3ccccc3)CC2)cc1
EC50 [3]: > 260 µM (inactive)

CCCc1cc(=O)oc2cc(C)c(CN3CCCC3)c(O)c12
EC50 [3]: > 260 µM (inactive)

C=CCNC(=O)CSc1nnc(C(CC)N(C)C)n1C1CCCCC1 (stereo not drawn)
EC50 [3]: > 260 µM (inactive)

NS(=O)(=O)c1cc(C(=O)O)c(O)c2ccccc12
AC50 [4]: 3.98 µM (inconclusive)

CC(C)(C)c1nn(-c2ccccc2)c2[nH]c(=O)c(CNCc3ccco3)cc12
EC50 [1]: > 300 µM (not active)
EC50 [2]: > 300 µM (not active)

O=C(NNC(=O)c1cnccn1)c1cccc([N+](=O)[O-])c1
EC50 [1]: 1.03 µM (active)
EC50 [2]: 22.1 µM (active)

Cc1cc(C)cc(N(C(=O)c2ccccn2)C(C(=O)NC2CCCCC2)c2cccs2)c1 (stereo not drawn)
AC50 [6]: 17.8 µM (inconclusive)
AC50 [4]: 15.8 µM (inconclusive)
